≈ marks a conversion by molar mass, not a printed value. Like-named read-outs stand apart in the source and are kept apart here.
Experiments:
T. b. brucei B48 = test: Alamar Blue (resazurin) assay, multi-drug resistant T. b. brucei B48; format: cell-based; settings: Trypanosoma brucei, read-out: T. b. brucei EC50, B48
Description: (§1) The four compounds were tested for activity against the following three kinetoplastid pathogens: Trypanosoma brucei brucei, Trypanosoma congolense, and Leishmania mexicana. For the two Trypanosoma species, the compounds were tested in parallel against strains that were resistant to the most common trypanocides. T. b. brucei B48 is highly resistant to the entire classes of diamidines and melaminophenyl arsenicals, and T. congolense DA-Res was rendered resistant to diminazene aceturate by means of in vitro exposure to the drug. […] For the drug-resistant trypanosome strains, highly significant resistance to diamidines was confirmed, but there was no cross-resistance with the chalcones and flavanones. […] While this dataset of two chalcones is self-evidently insufficient for a structure–activity relationship (SAR) analysis, it is clear that the position of the hydroxy and methoxy groups on ring A (Figure 1) influenced the trypanocidal activity without increasing the toxicity.

T. b. brucei 427-WT = test: Alamar Blue (resazurin) assay, T. b. brucei Lister 427 wild-type bloodstream forms; settings: for EC50: Trypanosoma brucei; for activity against Trypanosoma species (in words): Trypanosoma species (T. b. brucei and T. congolense)
T. congolense DA-Res = format: cell-based, Trypanosoma congolense; settings: for EC50: Trypanosoma congolense, read-out: T. congolense EC50, DA-Res
Description: as §1

[1] = Drug toxicity assay in human foreskin fibroblast (HFF) cells, resazurin; format: cell-based; settings: HFF (human foreskin fibroblast) cells; human foreskin fibroblasts; highest concentration tested 100 µg/mL; mean ± SEM, n>=3
HFF cells = test: as above; format: cell-based; settings: EC50 (HFF)/EC50(427-WT)
T. congolense IL3000-WT = test: Alamar Blue (resazurin) assay, T. congolense IL3000 wild-type bloodstream forms
[2] = 72 h, read-out: T. b. brucei EC50, 427-WT, bloodstream forms, 48 h + 24 h resazurin, mean ± SEM, n>=3

Row | Structure (SMILES) | EC50 (T. b. brucei B48) [µM] | EC50 (T. b. brucei 427-WT; [2]) [µM] | EC50 (T. b. brucei 427-WT; read-out: EC50 against Trypanosoma brucei brucei, standard resazurin-based assay) [µg/mL] | EC50 (T. congolense DA-Res) [µM] | EC50 at 54 h [1] [µM] | SI (Tbb), selectivity index = EC50(HFF)/EC50(Tbb) (HFF cells) | activity against T. congolense (in words) (T. congolense IL3000-WT) | EC50 (T. congolense IL3000-WT; Trypanosoma congolense, read-out: EC50 against T. congolense) [µg/mL] | fold less activity than compound 1 against T. b. brucei (T. b. brucei 427-WT; relative to compound 1) | fold less activity than compound 1 against T. congolense (T. congolense IL3000-WT; relative to compound 1) [fold] | activity against Trypanosoma species (in words) (T. b. brucei 427-WT) | resistance of clone 6C3 versus IL3000 (T. congolense DA-Res; line adapted in vitro to diminazene aceturate)
1 | COc1cc(O)c(C(=O)/C=C/c2ccccc2)c(OC)c1 [Compound 1, 2′,4′-dimethoxy-6′-hydroxychalcone] | 1.8 | ~2 | 0.58 | 8.8 ± 0.28 | > 350 | >172 | moderate activity | 2.5 (≈ 8.79 µM) | – | – | – | –
2 | COc1cc(O)c(OC)c(O)c1C(=O)/C=C/c1ccccc1 [Compound 2, 2′,5′-dimethoxy-4′,6′-dihydroxychalcone] | 13.9 ± 0.6 | 14.6 ± 0.8 | – | 28.6 ± 1.4 | > 330 | >22.8 | – | – | about 8 fold | ~4 | – | –
3 | COc1cc(OC)c2c(c1)OC(c1ccccc1)CC2=O (stereo not drawn) [Compound 3, 5,7-dimethoxyflavanone] | 30.3 ± 1.1 | 30.1 ± 0.95 | – | 106 ± 15 | > 350 | >11.7 | – | – | – | – | moderate activity | –
4 | COc1cc(O)c(OC)c2c1C(=O)CC(c1ccccc1)O2 (stereo not drawn) [Compound 4, 5,8-dimethoxy-7-hydroxyflavanone] | 51.9 ± 1.6 | 55.3 ± 1.6 | – | 48 ± 6.2 | > 330 | >6.0 | – | – | – | – | moderate activity | –
5 | N=C(N)c1ccc(/N=N/Nc2ccc(C(=N)N)cc2)cc1 [Diminazene, diminazene aceturate, reference compound] | 2.4 ± 0.36 | 0.15 ± 0.01 | – | 1.43 ± 0.03 | – | – | – | – | – | – | – | ~ 10 fold
6 | N=C(N)c1ccc(OCCCCCOc2ccc(C(=N)N)cc2)cc1 [Pentamidine, reference compound] | 0.72 ± 0.03 | 0.0034 ± 0.0004 | – | – | – | – | – | – | – | – | – | –
